{
  "source": "patent US7132422B2",
  "about": "“Sodium channel modulators” (Theravance, Inc., priority 2001, dated 2006)",
  "data": [
    {"system": "spinal nerve ligation (SNL) rats", "assay": "In vivo pain model: spinal nerve ligation (SNL), 50% withdrawal threshold with von Frey filaments", "conditions": "intraperitoneal dose of approximately 30 mg/kg", "procedure": "Male Sprague-Dawley rats (120–180 g, Harlan, Indianapolis, Ind.) are pre-screened to determine their baseline 50% withdrawal threshold using a set of von Frey filaments. The 50% withdrawal threshold for mechanical stimulation to the hind paw is determined by the up-down method described by Dixon W. J., Ann.\nAn abrupt withdrawal of the foot during stimulation or immediately after the removal of stimulus is considered a positive response.\nWhenever there is a positive or negative response, the next weaker or stronger filament is applied, respectively. The test is continued until six stimuli after the first change in response has been obtained. […] In the cases where continuous positive or negative responses are observed all the way out to the end of the stimulus spectrum, values of 0.3 g or 15.0 g are assigned, respectively.\nAfter pre-screening, rats which display a 50% withdrawal threshold greater than 8 g are acceptable for surgery. The spinal nerve ligation (SNL) surgery is carried out as follows. Rats are anesthetized with inhaled Isoflurance and the left L5 and L6 spinal nerves are tightly ligated with 6-0 silk thread. Postoperatively, rats are placed under a heat lamp until motor function returns and then single-housed. At 5–7 days post surgery, rats are re-tested to determine their post-surgery 50% withdrawal threshold. Rats which consistently display (2 or more days) a 50% withdrawal threshold less than 4.5 g are considered acceptable for compound investigation.\nCompounds are formulated in saline for injection and pH adjusted with dilute sodium hydroxide. Groups sizes are normally 5 or 6 rats. […] At 1, 3, and 6 hours post administration, the 50% withdrawal threshold is determined by an investigator who is blinded to the treatment groups. If at 6 hours, some prolonged activity is present, i.e., 50% withdrawal thresholds greater than 8 g, then later timepoints may be attempted (normally at 12 and 24 hours). Compounds can also be administered orally to determine oral activity.", "values": [
      {"smiles": "Cc1cccc(Cl)c1OCC(C)(N)COc1c(C)cccc1Cl", "note": "[Compound 5]", "effectiveness for treating pain / activity in the in vivo pain model": "some activity"},
      {"smiles": "Cc1ccccc1OCC(C)(N)COc1ccccc1C", "note": "[Compound 1]", "effectiveness for treating pain / activity in the in vivo pain model": "demonstrated effectiveness for treating pain"},
      {"smiles": "Cc1ccccc1OCC(N)COc1ccccc1C", "note": "[Compound 8]", "effectiveness for treating pain / activity in the in vivo pain model": "not active"},
      {"smiles": "CC(N)(COc1c(F)cc(F)cc1F)COc1c(F)cc(F)cc1F", "note": "[Compound 6]", "effectiveness for treating pain / activity in the in vivo pain model": "not active"},
      {"smiles": "Cc1cccc(C)c1OCC(COc1c(C)cccc1C)NCCc1ccncc1", "note": "[Compound 79]", "effectiveness for treating pain / activity in the in vivo pain model": "not active"},
      {"smiles": "Cc1cccc(C)c1OCC(N)COc1c(F)cc(F)cc1F", "note": "(stereo not drawn) [Compound 11]", "effectiveness for treating pain / activity in the in vivo pain model": "some activity"}
    ]}
  ]
}
